{"source": "patent US8912121B2", "about": "“Herbicidal compositions comprising 4-amino-3-chloro-5-fluoro-6-(4-chloro-2-fluoro-3-methoxyphenyl)pyridine-2-carboxylic acid or a derivative thereof and certain PS II inhibitors” (Dow Agrosciences LLC, priority 2012, dated 2014)", "key": {"[1]": {"system": "IPOHE (Ipomoea hederacea, ivyleaf morningglory)", "test": "Postemergence foliar-applied mixtures, direct seeded rice, greenhouse", "assay_type": "in vivo, Ipomoea hederacea Jacq.", "settings": "post-emergence, 480 h", "from_the_text": "Seeds or nutlets of the desired test plant species were planted in a soil matrix prepared by mixing a loam or sandy loam soil (e.g., 28.6 percent silt, 18.8 percent clay, and 52.6 percent sand, with a pH of about 5.8 and an organic matter content of about 1.8 percent) and calcareous grit in an 80 to 20 ratio. The soil matrix was contained in plastic pots with a volume of 1 quart and a surface area of 83.6 square centimeters (cm^2). When required to ensure good germination and healthy plants, a fungicide treatment and/or other chemical or physical treatment was applied. The plants were grown for 8-22 days in a greenhouse with an approximate 14 h photoperiod which was maintained at about 29° C. during the day and 26° C. during the night. Nutrients (Peters Excel® 15-5-15 5-Ca 2-Mg and iron chelate) were applied in the irrigation solution as needed and water was added on a regular basis. Supplemental lighting was provided with overhead metal halide 1000-Watt lamps as necessary. The plants were employed for testing when they reached the first through fourth true leaf stage.\nTreatments consisted of the acid or esters of 4-amino-3-chloro-5-fluoro-6-(4-chloro-2-fluoro-3-methoxy-phenyl) pyridine-2-carboxylic acid (Compound A), each formulated as an SC (suspension concentrate), and various herbicidal components alone and in combination. Forms of compound A were applied on an acid equivalent basis.\nOther herbicidal components were applied on an active ingredient basis and included Photosystem II (PSII)-inhibiting herbicides propanil formulated as Stam® M4 EC, bentazon-sodium formulated as Basagran®, atrazine formulated as Atrazine 90 WDG, bromoxynil octanoate ester formulated as Buctril®, simetryne (technical grade material), simazine formulated as Princep® Caliber 90, ioxynil (technical grade material), cyanazine (technical grade material), and hexazinone (technical grade material).\nTreatment requirements were calculated based upon the rates being tested, the concentration of active ingredient or acid equivalent in the formulation, and a 12 mL application volume at a rate of 187 L/ha.\nFor treatments comprised of formulated compounds, measured amounts of compounds were placed individually in 25 mL glass vials and diluted in a volume of 1.25% (v/v) Agri-Dex® crop oil concentrated to obtain 12× stock solutions. […] Application solutions were prepared by adding an appropriate amount of each stock solution (e.g., 1 mL) and diluted to the appropriate final concentrations with the addition of 10 mL of an aqueous mixture of 1.25% (v/v) crop oil concentrate so that the final spray solutions contained 1.25+/−0.05% (v/v) crop oil concentrate.\nFor treatments comprised of technical compounds, weighed amounts can be placed individually in 25 mL glass vials and dissolved in a volume of 97:3 v/v acetone/DMSO to obtain 12× stock solutions. […] Application solutions can be prepared by adding an appropriate amount of each stock solution (e.g., 1 mL) and diluted to the appropriate final concentrations with the addition of 10 mL of an aqueous mixture of 1.5% (v/v) crop oil concentrate so that the final spray solutions contain 1.25% (v/v) crop oil concentrate. When technical materials are used, the concentrated stock solutions can be added to the spray solutions so that the final acetone and DMSO concentrations of the application solutions are 16.2% and 0.5%, respectively.\nFor treatments comprised of formulated and technical compounds, weighed amounts of the technical materials were placed individually in 25 mL glass vials and dissolved in a volume of 97:3 v/v acetone/DMSO to obtain 12× stock solutions, and measured amounts of the formulated compounds were placed individually in 25 mL glass vials and diluted in a volume of 1.5% (v/v) crop oil concentrate or water to obtain 12× stock solutions. […]"}, "[2]": {"system": "SCPMA (Schoenoplectus maritimus, sea clubrush)", "test": "In-water applied mixtures, transplanted paddy rice, greenhouse", "assay_type": "in vivo, Schoenoplectus maritimus (L.) Lye", "settings": "20 DAA", "experimental": "(§1) Weed seeds or nutlets of the desired test plant species were planted in puddled soil (mud) prepared by mixing a shredded, non-sterilized mineral soil (50.5 percent silt, 25.5 percent clay, and 24 percent sand, with a pH of about 7.6 and an organic matter content of about 2.9 percent) and water at a 1:1 volumetric ratio. The prepared mud was dispensed in 365 mL aliquots into 16-ounce (oz.) non-perforated plastic pots with a surface area of 86.59 square centimeters (cm^2) leaving a headspace of 3 centimeters (cm) in each pot Mud was allowed to dry overnight prior to planting or transplanting. Rice seeds were planted in Sun Gro MetroMix® 306 planting mixture, which typically has a pH of 6.0 to 6.8 and an organic matter content of about 30 percent, in plastic plug trays. Seedlings at the second or third leaf stage of growth were transplanted into 840 mL of mud contained in 32-oz. non-perforated plastic pots with a surface area of 86.59 cm^2 4 days prior to herbicide application. The paddy was created by filling the headspace of the pots with 2.5 to 3 cm of water. When required to ensure good germination and healthy plants, a fungicide treatment and/or other chemical or physical treatment was applied. The plants were grown for 4-22 days in a greenhouse with an approximate 14 h photoperiod which was maintained at about 29° C during the day and 26° C. during the night. Nutrients were added as Osmocote® (19:6:12, N:P:K+ minor nutrients) at 2 g per 16-oz. pot and 4 g per 32-oz. pot. Water was added on a regular basis to maintain the paddy flood, and supplemental lighting was provided with overhead metal halide 1000-Watt lamps as necessary. The plants were employed for testing when they reached the first through fourth true leaf stage.\n(§2) Treatments consisted of the acid or esters of 4-amino-3-chloro-5-fluoro-6-(4-chloro-2-fluoro-3-methoxy-phenyl)pyridine-2-carboxylic acid (compound A) each formulated as an SC (suspension concentrate) and various herbicidal components alone and in combination. Forms of compound A were applied on an acid equivalent basis.\n(§3) Other herbicidal components were applied on an active ingredient basis and included photosystem II (PSII)-inhibits propanil formulated as […] bentazon-sodium formulated as Basagran®, and simetryne (technical grade material).\n(§4) Treatment requirements for each compound or herbicidal component were calculated based upon the rates being tested, the concentration of active ingredient or acid equivalent in the formulation, an application volume of 2 mL per component per pot, and an application area of 86.59 cm^2 per pot.\n(§5) For formulated compounds, a measured amount was placed in an individual 100 or 200 mL glass vial and was dissolved in a volume of 1.25% (v/v) Agri-Dex® crop oil concentrate to obtain application solutions.\n(§6) For technical grade compounds, a weighed amount was placed in an individual 100 to 200 mL glass vial and was dissolved in a volume of acetone to obtain concentrated stock solutions. […] The concentrated stock solutions obtained were diluted with an equivalent volume of an aqueous mixture containing 2.5% (v/v) crop oil concentrate so that the final application solutions contained 1.25% (v/v) crop oil concentrate.\n(§7) Applications were made by injecting with a pipetter appropriate amounts of the application solutions, individually and sequentially, into the aqueous layer of the paddy. Control plants were treated in the same manner with the solvent blank. Applications were made so that all treated plant material received the same concentrations of acetone and crop oil concentrate.\n(§8) The treated plants and control plants were placed in a greenhouse as described above and water was added as needed to maintain a paddy flood. After approximately 3 weeks the condition of the test plants as compared with that of the untreated plants was determined visually and scored on a scale of 0 to 100 percent where 0 corresponds to no injury or growth inhibition and 100 corresponds to complete kill. […]"}, "[3]": {"system": "ECHOR (Echinochloa oryzoides, early watergrass)", "test": "In-water applied mixtures, transplanted paddy rice, greenhouse", "assay_type": "in vivo, Echinochloa oryzoides (Ard.) Fritsch", "settings": "70 g ae/ha; 20 DAA", "experimental": "as §1, §2, §3, §4, §5, §6, §7, §8"}}}
{"smiles": "CCCCOC(=O)c1nc(-c2ccc(Cl)c(OC)c2F)c(F)c(N)c1Cl", "note": "[Compound A n-Butyl Ester]", "values": [{"measurement": "pest or weed control at 16 g/ha", "setting": "[1]; read-out: Visual Weed Control (%) Obs, 16 g ae/ha, 20 DAA", "value": 15, "unit": "%"}, {"measurement": "pest or weed control at 17.5 g/ha", "setting": "[1]; read-out: Visual Weed Control (%) Obs, 17.5 g ae/ha, 20 DAA", "value": 48, "unit": "%"}, {"measurement": "Visual Weed Control (%) Obs", "setting": "[2]; 35 g ae/ha", "value": 0, "unit": "%"}, {"measurement": "Visual Weed Control (%) Obs", "setting": "[2]; 70 g ae/ha", "value": 0, "unit": "%"}, {"measurement": "Visual Weed Control (%) Obs", "setting": "[3]", "value": 40, "unit": "%"}]}
